Test results reported in patent US4698422A, “Triphos and tetraphos gold compounds and ligands” (SmithKline Beckman Corporation, priority 1986, dated 1987).
Several values for one entry are separate records, joined by “and”; a condition that tells them apart may be missing. Equal values may be shown once.

Tests used:
[1] = maximally tolerated dose in mice, ip, P388 regimen (Table A); assay type: in vivo, mouse; conditions: mouse, in vivo, ip; maximally tolerated dose for B6D2F female mice, ipqDxs regimen (Days 1 through 5)
Method: (§1) 10^6 P388 leukemia cells are inoculated ip in B6D2F1 mice. Twenty-four hours later, if the tumor inoculum proves to be free of bacterial contamination (as determined by 24 hours incubation in thioglycollate broth), animals are randomized into groups of 6 and housed in shoebox cages. The compound to be evaluated is dissolved in a minimal volume of either N,N-dimethylacetamide (DMA) or 95% ethanol (depending upon solubility). An equal volume of saline is added; if the drug comes out of solution an equal volume of polyethoxylated castor oil is added and then saline qs to a concentration such that the desired dose is delivered in 0.5 ml. The final concentration of DMA, ethanol and polyethoxylated castor oil is […]. Dilutions for lower doses are made with saline so there is a decreasing proportion of organic solvents in the vehicle with decreasing dosage. These vehicles provide soluble formulations (or suspensions). Fomulations are prepared immediately prior to injection. The compound is administered ip on Days 1 through 5 (i.e. treatment is initiated 24 hrs after tumor inoculation). Each experiment includes three groups of 6 animals as untreated controls and animals treated with a positive control, cisplatin, at two dose levels. Animals are weighed as a group on Days 1, 5 and 9 and average weight change (Δwt.) is used as a reflection of toxicity. Each experiment also includes an inoculum titration--groups of 8 mice inoculated ip with 10^5 to […] P388 leukemia cells. The titration is used to calculate cell kill achieved by treatment with drugs. Animals are monitored daily for mortality and experiments are terminated after 45 days. The endpoint is median survival time (MST) and increase in lifespan (ILS) which is the percentage of increase in MST relative to untreated controls. Untreated controls inoculated ip with 10^6 P388 leukemia cells generally survive for a median of 9 to 11 days. A drug is considered active if it produces ≥25 percent ILS.
(§2) ^(a) maximally tolerated dose for B6D2F female mice on an ipqDxs

P388 leukemia = test: in vivo ip P388 lymphocytic leukemia model; design: species or system B6D2F1 mice; conditions: maximum increase in lifespan, mice bearing ip P388 leukemia; slashes = separate experiments; ip Days 1 through 5; active if ≥25 percent
Method: This tumor system is widely accepted as an antitumor agent screening tool because it is sensitive to virtually all of the clinically active antineoplastic agents; quantitative and reproducible; amenable for large-scale screening; and predictive for activity in other animal tumor models.
as §1, with “These vehicles provide soluble formulations (or suspensions).” left out, “controls.” for “controls. Untreated controls inoculated ip with 10^6 P388 leukemia cells generally survive for a median of 9 to 11 days. A drug is considered active if it produces ≥25 percent ILS.”

B6D2F female mice [2] = test: maximally tolerated dose in mice, ip, P388 regimen (Table A); assay type: in vivo, mouse; conditions: maximally tolerated dose for B6D2F female mice, ipqDxs regimen (Days 1 through 5)
Method: as §1, §2

B16 melanoma = test: in vivo ip B16 melanoma assay; design: species or system B6D2F1 mice; conditions: maximum increase in lifespan, mice bearing ip B16 melanoma; slash = separate experiments; ip daily for ten days; active if ≥25%
Method: (§3) In this system, groups of eight B6D2F1 mice are inoculated ip with 0.5 ml of a 10% (w:v) brei of B15 melanoma prepared from pooled sc tumors excised at 14-21 days from […] donor mice. Daily treatment is begun 24 hours after tumor implantation and is continued daily for ten (10) days. The route of drug administration is ip. The mice are monitored daily for survival for sixty (60) days. Antitumor activity is assessed by prolongation of median survival time. An ILS of ≥25% indicates activity in this tumor model.

B6D2F1 mice = test: maximally tolerated dose in mice, ip qD × 10, B16 (Table C); assay type: in vivo, mouse; conditions: maximally tolerated dose for B6D2F1 mice
Method: as §3
^(b) maximally tolerated dose for B6D2F1 mice on an ip qD .times

[3] = test system: M5076 reticulum cell sarcoma; test: intraperitoneally implanted M5076 reticulum cell sarcoma in mice; assay type: in vivo, B6D2F female mice; conditions: maximum increase in lifespan, mice bearing ip M5076; ip daily for ten days; active if ≥25% ILS
Method: (§4) Another chemosensitive tumor model is intraperitoneally (ip) implanted M5076 reticulum cell sarcoma in mice. In this system B6D2F female mice are inoculated with 0.5 ml of a 10 percent (w:v) brei of M5076 prepared from pooled subcutaneous (sc) tumors excised at about 21 days from C57B1/6 donors. Drugs are administered ip. Daily treatment is begun 24 hours after implantation and is continued for ten days. The treatment regimen for M5076 is more prolonged than for P388 because of the slower growth rate and longer control survival time of the M5076 tumor. A drug is considered active in this tumor model if it produces ≥25% ILS.

B6D2F female mice [4] = test: maximally tolerated dose in mice, ip qD × 10, M5076 (Table B); assay type: in vivo, mouse; conditions: maximally tolerated dose for B6D2F female mice
Method: as §4
^(b) maximally tolerated dose for B6D2F female mice on an ip qD

Compound: c1ccc(P(CCP(c2ccccc2)c2ccccc2)CCP(c2ccccc2)c2ccccc2)cc1 [Compound 6, bis(2-diphenylphosphinoethyl)phenylphosphine]
- MTD [1]: 32 mg/kg
- ILS (max) (P388 leukemia): 80% and 50%

Compound: c1ccc(P(CCP(CCP(c2ccccc2)c2ccccc2)CCP(c2ccccc2)c2ccccc2)c2ccccc2)cc1 [Compound 7, tris(diphenylphosphinoethyl)phosphine]
- MTD [1]: 64 mg/kg
- ILS (max) (P388 leukemia): 35% and 30%

Compound: c1ccc(P(CCP(CCP(c2ccccc2)c2ccccc2)c2ccccc2)CCP(c2ccccc2)c2ccccc2)cc1 (stereo not drawn) [Compound 8, 1,1,4,7,10,10-hexaphenyl-1,4,7,10-tetraphosphodecane]
- MTD [1]: 64 mg/kg
- ILS (max) (P388 leukemia): 25% and 40%

Compound: CC(CP(c1ccccc1)c1ccccc1)(CP(c1ccccc1)c1ccccc1)CP(c1ccccc1)c1ccccc1 [Compound 9, μ-[1,1,1-Tris(diphenylphosphinomethyl)ethane]]
- MTD [1]: 128 mg/kg
- ILS (max) (P388 leukemia): 45% and 25%

Compound: μ-[1,1,1-Tris(diphenylphosphinomethyl)ethane]tris(chlorogold) [Compound 5]
- MTD (B6D2F female mice [2]): 20 mg/kg
- ILS (max) (P388 leukemia): 40% and 30%

Compound: μ-[1,1,4,7,10,10-Hexaphenyl-1,4,7,10-tetraphosphodecane]tetrakis(1-thio- β-D-glucopyranosato-S)gold [Compound 4]
- MTD (B6D2F female mice [2]): 8 mg/kg
- ILS (max) (P388 leukemia): 100% and 55%

Compound: μ-[1,1,4,7,10,10-Hexaphenyl-1,4,7,10-tetraphosphodecane]tetrakis(chlorogold) [Compound 3]
- MTD (B6D2F female mice [2]): 12 mg/kg
- ILS (B16 melanoma): 30% and 51%
- MTD (B6D2F1 mice): 6 mg/kg
- ILS (MAX) [3]: 96%
- MTD (B6D2F female mice [4]): 8 mg/kg

Compound: μ-[Bis(2-diphenylphosphinoethyl)phenylphosphine]tris(chlorogold) [Compound 1]
- MTD (B6D2F female mice [2]): 8 mg/kg
- ILS (max) (P388 leukemia): 30% and 40%

Compound: μ-[Tris(2-diphenylphosphinoethyl)phosphine]tetrakis(chlorogold) [Compound 2]
- MTD (B6D2F female mice [2]): 8 mg/kg
- ILS (max) (P388 leukemia): 45%
